Test results as given in patent US12024531B2, “Immunoproteasome inhibitors” (Principia Biopharma Inc., priority 2017, dated 2024).

Tests used:
Assay type in all cases: biochemical
[1] = target: immunoproteasome LMP7/B5i subunit (Homo sapiens, UniProt P28062); test: Caliper-based proteasome enzymatic activity assay, LMP7; conditions: human recombinant immunoproteasome 0.3 nM, FAM peptide substrate 1 μM, rt 3 h
[2] = target: immunoproteasome LMP2 subunit (Homo sapiens, UniProt P28065); test: Caliper-based proteasome enzymatic activity assay, LMP2; conditions: human recombinant immunoproteasome 0.3 nM, FAM peptide substrate 1 μM, rt 2 h
[3] = target: constitutive proteasome β5c subunit (Homo sapiens, UniProt P28074); test: Caliper-based proteasome enzymatic activity assay, β5c; conditions: human recombinant constitutive proteasome 0.3 nM, FAM peptide substrate 1 μM, rt 3 h

IC50 [1] [µM]	IC50 [2] [µM]	IC50 [3] [µM]	Structure (SMILES)
0.0016	> 5	0.197	Cc1ccc(C[C@H](NC(=O)OCCc2cccc(C=C(C#N)c3ncccn3)c2)B(O)O)cc1 [Example 87, (R)-(1-(((3-(2-cyano-2-(pyrimidin-2-yl)vinyl)phenethoxy)carbonyl)amino)-2-(p-tolyl)ethyl)boronic Acid]
0.004	0.27	0.12	CCNC(=O)C(C#N)=Cc1cccc(OCCC(=O)N[C@@H](Cc2ccccc2)B(O)O)c1 [Example 31, (R)-(1-(3-(3-(2-cyano-3-(ethylamino)-3-oxoprop-1-en-1-yl)phenoxy)propanamido)-2-phenylethyl)boronic Acid]
0.008	0.12	0.08	N#CC(=Cc1cccc(OCCC(=O)N[C@@H](Cc2ccccc2)B(O)O)c1)c1ncccc1F [Example 34, (R)-(1-(3-(3-(2-cyano-2-(3-fluoropyridin-2-yl)vinyl)phenoxy)propanamido)-2-phenylethyl)boronic Acid]
0.005	0.5	0.06	CCN(CC)C(=O)C(C#N)=Cc1cccc(OCCC(=O)N[C@@H](Cc2ccccc2)B(O)O)c1 [Example 7, (R)-1-(3-(3-(2-cyano-3-(diethylamino)-3-oxoprop-1-enyl)phenoxy)propanamido)-2-phenylethylboronic Acid]
0.0018	> 5	0.188	Cc1ccc(C[C@H](NC(=O)OCCc2cccc(C=C(C#N)c3ccccn3)c2)B(O)O)cc1 [Example 57, (R)-(1-(((3-(2-cyano-2-(pyridin-2-yl)vinyl)phenethoxy)carbonyl)amino)-2-(p-tolyl)ethyl)boronic Acid]
0.003	0.16	0.025	CN(C)C(=O)C(C#N)=Cc1ccc(F)c(OCCC(=O)N[C@@H](Cc2ccccc2)B(O)O)c1 [Example 27, (R)-(1-(3-(5-(2-cyano-3-(dimethylamino)-3-oxoprop-1-en-1-yl)-2-fluorophenoxy)propanamido)-2-phenylethyl)boronic Acid]
0.0041	0.32	0.176	CN(C)C(=O)C(C#N)=Cc1cc(F)cc(OCCC(=O)N[C@@H](Cc2ccccc2)B(O)O)c1 [Example 41, (R)-(1-(3-(3-(2-cyano-3-(dimethylamino)-3-oxoprop-1-en-1-yl)-5-fluorophenoxy)propanamido)-2-phenylethyl)boronic Acid]
0.0022		1.55	CCN(C(=O)C(C#N)=Cc1cc(C#N)cc(CCOC(=O)N[C@@H](Cc2ccccc2)B(O)O)c1)C1CCOCC1 [Example 102, (R)-(1-(((3-cyano-5-(2-cyano-3-(ethyl(tetrahydro-2H-pyran-4-yl)amino)-3-oxoprop-1-en-1-yl)phenethoxy)carbonyl)amino)-2-phenylethyl)boronic Acid]
0.023		> 5	Cc1ccc(C[C@H](NC(=O)NCCc2cccc(C=C(C#N)n3cncn3)c2)B(O)O)cc1 [Example 107, (R)-(1-(3-(3-(2-cyano-2-(1H-1,2,4-triazol-1-yl)vinyl)phenethyl)ureido)-2-(p-tolyl)ethyl)boronic Acid]
0.0015		1.74	N#CC(=Cc1cccc(CCOC(=O)N[C@@H](Cc2ccccc2)B(O)O)c1)n1cncn1 [Example 99, (R)-(1-(((3-(2-cyano-2-(1H-1,2,4-triazol-1-yl)vinyl)phenethoxy)carbonyl)amino)-2-phenylethyl)boronic Acid]
0.035		> 5	CCN(CC)C(=O)C(C#N)=Cc1ccc2c(c1)CN(CC(=O)N[C@@H](Cc1ccc(C)cc1)B(O)O)CC2 [Example 108, (R)-(1-(2-(7-(2-cyano-3-(diethylamino)-3-oxoprop-1-en-1-yl)-3,4-dihydroisoquinolin-2(1H)-yl)acetamido)-2-(p-tolyl)ethyl)boronic Acid]
0.015		0.085	CC(C)(C)NC(=O)C(C#N)=Cc1ccc(F)c(OCCC(=O)N[C@@H](Cc2ccccc2)B(O)O)c1 [Example 18, (R)-(1-(3-(5-(3-(tert-butylamino)-2-cyano-3-oxoprop-1-en-1-yl)-2-fluorophenoxy)propanamido)-2-phenylethyl)boronic Acid]
0.0014		0.46	CCN(C(=O)C(C#N)=Cc1cc(C#N)cc(CCOC(=O)N[C@@H](Cc2ccc(C)cc2)B(O)O)c1)C1CCOCC1 [Example 103, (R)-(1-(((3-cyano-5-(2-cyano-3-(ethyl(tetrahydro-2H-pyran-4-yl)amino)-3-oxoprop-1-en-1-yl)phenethoxy)carbonyl)amino)-2-(p-tolyl)ethyl)boronic Acid]
0.0007		0.043	CCN(CC)C(=O)C(C#N)=Cc1cc(C#N)cc(CCOC(=O)N[C@@H](Cc2coc3ccccc23)B(O)O)c1 [Example 97, (R)-(2-(benzofuran-3-yl)-1-(((3-cyano-5-(2-cyano-3-(diethylamino)-3-oxoprop-1-en-1-yl)phenethoxy)carbonyl)amino)ethyl)boronic Acid]
0.004		0.1	CC(C)NC(=O)C(C#N)=Cc1cccc(OCCC(=O)N[C@@H](Cc2ccccc2)B(O)O)c1 [Example 12, (R)-1-(3-(3-(2-cyano-3-(isopropylamino)-3-oxoprop-1-enyl)phenoxy)propanamido)-2-phenylethylboronic Acid]
0.0033		2.87	CCN(CC)C(=O)C(C#N)=Cc1cc(C#N)cc(CCOC(=O)N[C@@H](Cc2ccccc2)B(O)O)c1 [Example 104, (R)-(1-(((3-cyano-5-(2-cyano-3-(diethylamino)-3-oxoprop-1-en-1-yl)phenethoxy)carbonyl)amino)-2-phenylethyl)boronic Acid]
0.01		0.12	CC(C)(C)NC(=O)C(C#N)=Cc1cccc(CCC(=O)N[C@@H](Cc2ccccc2)B(O)O)c1 [Example 3, (R)-(1-(3-(3-(3-(tert-butylamino)-2-cyano-3-oxoprop-1-en-1-yl)phenyl)propanamido)-2-phenylethyl)boronic Acid]
0.016		0.42	CCc1cccc(C[C@H](NC(=O)CCOc2cccc(C=C(C#N)C(=O)NC(C)(C)C)c2)B(O)O)c1 [Example 8, (R)-(1-(3-(3-(3-(tert-butylamino)-2-cyano-3-oxoprop-1-en-1-yl)phenoxy)propanamido)-2-(3-ethylphenyl)ethyl)boronic Acid]
0.0016		0.021	CCN(C(=O)C(C#N)=Cc1ccc2c(c1)CN(CC(=O)N[C@@H](Cc1coc3ccccc13)B(O)O)CC2)C1CCOCC1 [Example 105, (R)-(2-(benzofuran-3-yl)-1-(2-(7-(2-cyano-3-(ethyl(tetrahydro-2H-pyran-4-yl)amino)-3-oxoprop-1-en-1-yl)-3,4-dihydroisoquinolin-2(1H)-yl)acetamido)ethyl)boronic Acid]
0.006		0.032	CC(C)(C)NC(=O)C(C#N)=Cc1cccc(CC[C@H](NC(=O)c2cnccn2)C(=O)N[C@@H](Cc2ccccc2)B(O)O)c1 [Example 1, ((R)-1-((S)-4-(3-(3-(tert-butylamino)-2-cyano-3-oxoprop-1-en-1-yl)phenyl)-2-(pyrazine-2-carboxamido)butanamido)-2-phenylethyl)boronic Acid]
0.0012		0.087	CCN(C(=O)C(C#N)=Cc1cccc(CCOC(=O)N[C@@H](Cc2coc3ccccc23)B(O)O)c1)C1CCOCC1 [Example 95, (R)-(2-(benzofuran-3-yl)-1-(((3-(2-cyano-3-(ethyl(tetrahydro-2H-pyran-4-yl)amino)-3-oxoprop-1-en-1-yl)phenethoxy)carbonyl)amino)ethyl)boronic Acid]
0.149		3.93	CC(C)(C)C[C@H](NC(=O)CCOc1cccc(C=C(C#N)C(=O)NC(C)(C)C)c1)B(O)O [Example 13, (R)-1-(3-(3-(3-(tert-butylamino)-2-cyano-3-oxoprop-1-enyl)phenoxy)propanamido)-3,3-dimethylbutylboronic Acid]
0.0021		0.328	CCN(CC)C(=O)C(C#N)=Cc1cccc(CCNC(=O)N[C@@H](Cc2coc3ccccc23)B(O)O)c1 [Example 96, (R)-(2-(benzofuran-3-yl)-1-(3-(3-(2-cyano-3-(diethylamino)-3-oxoprop-1-en-1-yl)phenethyl)ureido)ethyl)boronic Acid]
0.0005		0.071	C[C@@H]1COC[C@@H](C)N1C(=O)C(C#N)=Cc1cccc(CCOC(=O)N[C@@H](Cc2coc3ccccc23)B(O)O)c1 [Example 98, ((R)-2-(benzofuran-3-yl)-1-(((3-(2-cyano-3-((3R,5R)-3,5-dimethylmorpholino)-3-oxoprop-1-en-1-yl)phenethoxy)carbonyl)amino)ethyl)boronic Acid]
0.0075		0.077	CCN(CC)C(=O)C(C#N)=Cc1ccc2c(c1)CN(CC(=O)N[C@@H](Cc1ccccc1)B(O)O)CC2 [Example 109, (R)-(1-(2-(7-(2-cyano-3-(diethylamino)-3-oxoprop-1-en-1-yl)-3,4-dihydroisoquinolin-2(1H)-yl)acetamido)-2-phenylethyl)boronic Acid]
0.0052		1.43	CCN(C(=O)C(C#N)=Cc1cccc(CCNC(=O)N[C@@H](Cc2coc3ccccc23)B(O)O)c1)C1CCOCC1 [Example 100, (R)-(2-(benzofuran-3-yl)-1-(3-(3-(2-cyano-3-(ethyl(tetrahydro-2H-pyran-4-yl)amino)-3-oxoprop-1-en-1-yl)phenethyl)ureido)ethyl)boronic Acid]
0.0048		> 5	N#CC(=Cc1cccc(CCOC(=O)N[C@@H](CCc2ccccc2)B(O)O)c1)n1cncn1 [Example 106, (R)-(1-(((3-(2-cyano-2-(1H-1,2,4-triazol-1-yl)vinyl)phenethoxy)carbonyl)amino)-3-phenylpropyl)boronic Acid]
